In Sander's compilation of Henry's law constants (doi:10.1136/oem.51.1.68):

Experiment: Henry solubility constant Hcp at 310 K (mol/(m3 Pa))
Conditions: reference: Kaneko et al. (1994)

Henry solubility constant Hcp at 310 K | Compound
0.42 | CCCCCO [1-pentanol]
0.72 | CCCO [1-propanol]
0.33 | CCC(C)CO (centres undefined) [2-methyl-1-butanol]
0.44 | CC(C)CO [2-methyl-1-propanol]
0.01 | CC(=O)OCC(C)C [2-methylpropyl ethanoate]
0.58 | CC(C)O [2-propanol]
0.013 | CC(=O)OC(C)C [2-propyl ethanoate]
0.0088 | CC(=O)OCCC(C)C [3-methylbutyl ethanoate]
0.83 | CCO [ethanol]
0.028 | CCOC(C)=O [ethyl ethanoate]
0.042 | COC(C)=O [methyl ethanoate]
0.0093 | CCCCCOC(C)=O [pentyl ethanoate]
0.021 | CCCOC(C)=O [propyl ethanoate]

Compound | Henry solubility constant Hcp at 310 K
CCCCOC(C)=O [butyl ethanoate] | 0.013
